Among the data in patent US20070129330A1, “1,3-Diaza-dibenzo[e,h]azulenes for the treatment of central nervous system diseases and disorders” (Pliva-Istrazivacki Institut d.o.o., priority 2003, published 2007) are IC50 and Ki values, retold here.

Broadly, the IC50 is the concentration at which inhibition is half-maximal. By Ki is commonly meant the equilibrium dissociation constant of an inhibitor or competing ligand from its target.

One assay deals with T1, 5-HT2A receptor (Homo sapiens, UniProt P28223).
T1 construct: expressed in transfected cells; host or cells: CHO-K1 (alternatively human cortex tissue)
Put plainly: radioligand binding assay for 5-HT2A receptor ([3H]-ketanserin competitive binding). Particulars: human cortex or recombinant 5-HT2A receptor expressed in CHO-K1 cells; for IC50: read-out: binding affinity to 5-HT2A serotonin receptor expressed as IC50 value; for Ki: read-out: binding affinity to 5-HT2A serotonin receptor, Ki value. As for the experimental part:
(§1) The effect of the compounds of the present invention on the neurochemical steady state was determined by in vitro investigations such as a radionuclide-marked radioligand binding assay for 5-HT2A (Bonhaus D. W. Br. J. Pharmacol. 1995, 115:622; Saucier C. J. Neurochem. 1997, 68:1998) and 5-HT2C receptors (Wolf W.A. J. Neurochem. 1997, 69:1449), in vitro binding assay for the σ1 receptor (Thomson W. and Donn R. Arthritis Res. 2002, 4: 302-306) and by in vivo investigations in a tail suspension test (Vogel H. G. and Vogel W. H. Drug Discovery and Evaluation Pharmacological Assays, Springer 1997, 304), in amphetamine-induced hyperlocomotion in mice (Millan M. J. et al, 1998 J. Pharmacol. Exp. Ther. 287: 167-186), in a forced swim test in mice (Porsolt R. D. et al. Arch. Int. Pharmacodyn. 1977, 229:327-336), in meta-chlorophenyl piperazine (m-CPP) test on rats (Drug Dev. Res. 1989, 18:119-144), and in apomorphine, tryptamine and norepinephrine (ATN) test in rats (Arch. Int. Pharmacodyn. 1977, 227:238-253).
(§2) A small concentration of a radioligand having a great affinity for binding to a receptor was incubated with a tissue sample enriched with a certain receptor (1-5 mg of tissue) in a buffered medium (0.2-5 mL). Recombinant human HT2A and HT2C receptors were expressed in CHO-K1 or COS-7 cells and were also used for competitive binding. During incubation the radioligand bound to the receptor. When a binding balance was achieved, the receptors to which the radioligand was bound were separated from those to which said ligand was not bound, and the radioactivity of the receptor/radioligand complex was measured. The interaction of the tested compounds with receptors was tested in competitive binding experiments. Various concentrations of tested compounds were added to the incubation mixture containing a prepared tissue enriched with corresponding receptors and the radioligand. The radioligand binding was inhibited by the test compounds proportionally to the affinity of a certain compound for the receptor and to the concentration of the compound.
(§3) The radioligand used for the determination of binding to 5-HT2A receptor was [^3H]-ketanserin and the tissue used was human cortex or recombinant 5-HT2A receptor expressed in CHO-K1 cells. The radioligand used for the determination of binding to 5-HT2C receptor was [^3H]-mesulergine and the tissue used was choroid plexus or recombinant 5-HT2C receptor expressed in CHO-K1 cells.
(§4) It is anticipated that similar results will be observed for other compounds of the invention.

The target in the next assay is T2, 5-HT2C receptor (Homo sapiens, UniProt P28335).
T2 construct: expressed in transfected cells; host or cells: CHO-K1 (alternatively choroid plexus tissue)
T2 sequence (P28335 33-458): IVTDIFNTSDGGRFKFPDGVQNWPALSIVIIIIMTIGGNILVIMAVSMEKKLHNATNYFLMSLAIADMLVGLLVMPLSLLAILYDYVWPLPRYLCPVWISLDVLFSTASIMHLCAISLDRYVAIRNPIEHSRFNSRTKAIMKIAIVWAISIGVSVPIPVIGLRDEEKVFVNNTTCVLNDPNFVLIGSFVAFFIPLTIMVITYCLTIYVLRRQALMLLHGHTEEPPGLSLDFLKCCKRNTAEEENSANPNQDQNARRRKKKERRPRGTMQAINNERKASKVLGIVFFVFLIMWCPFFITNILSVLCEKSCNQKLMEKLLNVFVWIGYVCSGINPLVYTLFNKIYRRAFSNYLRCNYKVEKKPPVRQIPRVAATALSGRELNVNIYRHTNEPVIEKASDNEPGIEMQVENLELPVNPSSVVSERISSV
Kind of assay: radioligand binding assay for 5-HT2C receptor ([3H]-mesulergine competitive binding). As to conditions: choroid plexus or recombinant 5-HT2C receptor expressed in CHO-K1 cells; for IC50: read-out: binding affinity to 5-HT2C serotonin receptor expressed as IC50 value; for Ki: read-out: binding affinity to 5-HT2C serotonin receptor, Ki value. As for the experimental part:
as §1, §2, §3, §4

T1 sequence (P28223 whole entry): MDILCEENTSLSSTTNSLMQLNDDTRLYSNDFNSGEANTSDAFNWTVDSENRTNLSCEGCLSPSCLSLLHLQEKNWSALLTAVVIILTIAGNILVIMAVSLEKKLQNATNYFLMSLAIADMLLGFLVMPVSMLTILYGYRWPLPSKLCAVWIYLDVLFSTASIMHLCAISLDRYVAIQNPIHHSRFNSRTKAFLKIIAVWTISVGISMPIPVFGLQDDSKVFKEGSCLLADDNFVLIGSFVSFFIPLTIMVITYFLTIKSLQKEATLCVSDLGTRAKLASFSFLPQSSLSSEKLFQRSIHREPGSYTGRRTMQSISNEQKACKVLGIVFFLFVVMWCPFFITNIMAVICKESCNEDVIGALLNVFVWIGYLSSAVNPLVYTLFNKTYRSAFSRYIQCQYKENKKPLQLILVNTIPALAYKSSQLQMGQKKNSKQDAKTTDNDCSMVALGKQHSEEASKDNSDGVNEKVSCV

Turning to `Clc1ccc2c(c1)-c1[nH]cnc1-c1ccccc1O2` [11chloro-1H-8-oxa-1,3-diaza-dibenzo[e,h]azulene], at 5-HT2A receptor, the 50% inhibitory concentration (IC50) was less than 200 nM and the Ki was less than 100 nM. In addition, at 5-HT2C receptor, the IC50 was less than 200 nM and the inhibitory constant (Ki) is less than 100 nM.
Turning to `CN(C)CCCOCc1nc2c([nH]1)-c1cc(Cl)ccc1Sc1ccccc1-2` [[3-(11-chloro-1H-8-thia-1,3-diaza-dibenzo[e,h]azulen-2-ylmethoxy)-propyl]-dimethyl-amine], the IC50 at 5-HT2A receptor and at 5-HT2C receptor was less than 200 nM in each case. Also, the Ki at 5-HT2A receptor and on 5-HT2C receptor was less than 100 nM throughout.
As for `CN(C)CCOCc1nc2c(n1C)-c1ccccc1Sc1ccccc1-2` [dimethyl-[2-(1-methyl-1H-8-thia-1,3-diaza-dibenzo[e,h]azulen-2-ylmethoxy)-ethyl]-amine], on 5-HT2A receptor, the half-inhibitory concentration (IC50) is less than 200 nM and the inhibition constant (Ki) is less than 100 nM. Further, on 5-HT2C receptor, the IC50 is less than 200 nM and the Ki is less than 100 nM.
On to `CN(C)CCCOc1ccccc1-c1nc2c([nH]1)-c1ccccc1Sc1ccccc1-2` [dimethyl-{3-[2-(1H-8-thia-1,3-diaza-dibenzo[e,h]azulen-2-yl)-phenoxy]-propyl}-amine], for which, on 5-HT2A receptor, the IC50 is less than 200 nM and the Ki was less than 100 nM. Moreover, at 5-HT2C receptor, the IC50 was less than 200 nM and the Ki is less than 100 nM.
